Results reported in the NIST ThermoML archive (doi:10.1016/j.jct.2012.03.031).
Numbers after ± are expanded uncertainties.

Assay: molar heat capacity at constant pressure
Details: 101.33 kPa

CCCCc1ccc(C(=O)Oc2ccc(C#N)c(F)c2)cc1 [4-cyano-3-fluorophenyl 4-butylbenzoate]
Details	molar heat capacity at constant pressure [J/K/mol]
141.25 K, Crystal 1, Small (less than 1 g) adiabatic calorimetry	201.94 ± 1.4
142.25 K, Crystal 1, Small (less than 1 g) adiabatic calorimetry	202.81 ± 1.4
142.97 K, Crystal 2, Small (less than 1 g) adiabatic calorimetry	216.4 ± 1.5
143.16 K, Crystal 1, Small (less than 1 g) adiabatic calorimetry	203.97 ± 1.4
144.71 K, Crystal 1, Small (less than 1 g) adiabatic calorimetry	205.52 ± 1.5
145.06 K, Crystal 1, Small (less than 1 g) adiabatic calorimetry	206.05 ± 1.4
145.3 K, Crystal 2, Small (less than 1 g) adiabatic calorimetry	219.62 ± 1.5
146.94 K, Crystal 1, Small (less than 1 g) adiabatic calorimetry	208.17 ± 1.5
147.18 K, Crystal 1, Small (less than 1 g) adiabatic calorimetry	208.18 ± 1.5
147.65 K, Crystal 2, Small (less than 1 g) adiabatic calorimetry	221.78 ± 1.6
148.81 K, Crystal 1, Small (less than 1 g) adiabatic calorimetry	210.18 ± 1.5
149.66 K, Crystal 1, Small (less than 1 g) adiabatic calorimetry	210.87 ± 1.5
150 K, Crystal 1, Vacuum adiabatic calorimetry	211.22 ± 1.3
150 K, Crystal 2, Small (less than 1 g) adiabatic calorimetry	226.25 ± 1.6
150 K, Crystal 2, Vacuum adiabatic calorimetry	226.24 ± 1.4
150.66 K, Crystal 1, Small (less than 1 g) adiabatic calorimetry	212.24 ± 1.5
152.15 K, Crystal 1, Small (less than 1 g) adiabatic calorimetry	213.41 ± 1.6
152.37 K, Crystal 2, Small (less than 1 g) adiabatic calorimetry	229.33 ± 1.6
152.5 K, Crystal 1, Small (less than 1 g) adiabatic calorimetry	214.29 ± 1.5
154.33 K, Crystal 1, Small (less than 1 g) adiabatic calorimetry	216.32 ± 1.5
154.65 K, Crystal 1, Small (less than 1 g) adiabatic calorimetry	216.65 ± 1.5
154.75 K, Crystal 2, Small (less than 1 g) adiabatic calorimetry	232.46 ± 1.6
156.14 K, Crystal 1, Small (less than 1 g) adiabatic calorimetry	218.31 ± 1.5
157.14 K, Crystal 2, Small (less than 1 g) adiabatic calorimetry	235.73 ± 1.6
157.17 K, Crystal 1, Small (less than 1 g) adiabatic calorimetry	219.23 ± 1.5
157.94 K, Crystal 1, Small (less than 1 g) adiabatic calorimetry	220.33 ± 1.5
159.54 K, Crystal 2, Small (less than 1 g) adiabatic calorimetry	238.88 ± 1.7
159.69 K, Crystal 1, Small (less than 1 g) adiabatic calorimetry	222.08 ± 1.6
159.74 K, Crystal 1, Small (less than 1 g) adiabatic calorimetry	222.37 ± 1.6
160 K, Crystal 1, Vacuum adiabatic calorimetry	222.43 ± 1.4
160 K, Crystal 2, Vacuum adiabatic calorimetry	239.47 ± 1.5
161.51 K, Crystal 1, Small (less than 1 g) adiabatic calorimetry	224.35 ± 1.6
161.96 K, Crystal 2, Small (less than 1 g) adiabatic calorimetry	242.01 ± 1.7
162.23 K, Crystal 1, Small (less than 1 g) adiabatic calorimetry	224.93 ± 1.6
163.28 K, Crystal 1, Small (less than 1 g) adiabatic calorimetry	226.23 ± 1.6
164.39 K, Crystal 2, Small (less than 1 g) adiabatic calorimetry	245.1 ± 1.7
164.77 K, Crystal 1, Small (less than 1 g) adiabatic calorimetry	227.75 ± 1.6
164.86 K, Crystal 1, Small (less than 1 g) adiabatic calorimetry	227.97 ± 1.6
166.27 K, Crystal 1, Small (less than 1 g) adiabatic calorimetry	229.58 ± 1.6
166.83 K, Crystal 2, Small (less than 1 g) adiabatic calorimetry	248.12 ± 1.7
167.33 K, Crystal 1, Small (less than 1 g) adiabatic calorimetry	230.64 ± 1.6
167.66 K, Crystal 1, Small (less than 1 g) adiabatic calorimetry	231.21 ± 1.6
169.05 K, Crystal 1, Small (less than 1 g) adiabatic calorimetry	232.8 ± 1.6
169.28 K, Crystal 2, Small (less than 1 g) adiabatic calorimetry	251.2 ± 1.8
169.91 K, Crystal 1, Small (less than 1 g) adiabatic calorimetry	233.56 ± 1.6
170 K, Crystal 1, Vacuum adiabatic calorimetry	233.66 ± 1.4
170 K, Crystal 2, Vacuum adiabatic calorimetry	252.09 ± 1.6
170.44 K, Crystal 1, Small (less than 1 g) adiabatic calorimetry	234.45 ± 1.6
171.75 K, Crystal 2, Small (less than 1 g) adiabatic calorimetry	254.25 ± 1.8
171.81 K, Crystal 1, Small (less than 1 g) adiabatic calorimetry	235.91 ± 1.6
172.49 K, Crystal 1, Small (less than 1 g) adiabatic calorimetry	236.43 ± 1.6
173.18 K, Crystal 1, Small (less than 1 g) adiabatic calorimetry	237.49 ± 1.7
174.23 K, Crystal 2, Small (less than 1 g) adiabatic calorimetry	257.27 ± 1.8
174.55 K, Crystal 1, Small (less than 1 g) adiabatic calorimetry	239.04 ± 1.7
175.09 K, Crystal 1, Small (less than 1 g) adiabatic calorimetry	239.43 ± 1.7
175.91 K, Crystal 1, Small (less than 1 g) adiabatic calorimetry	240.69 ± 1.7
176.72 K, Crystal 2, Small (less than 1 g) adiabatic calorimetry	260.38 ± 1.8
177.26 K, Crystal 1, Small (less than 1 g) adiabatic calorimetry	242.06 ± 1.7
177.69 K, Crystal 1, Small (less than 1 g) adiabatic calorimetry	242.43 ± 1.7
178.61 K, Crystal 1, Small (less than 1 g) adiabatic calorimetry	243.74 ± 1.7
179.23 K, Crystal 2, Small (less than 1 g) adiabatic calorimetry	263.65 ± 1.8
179.95 K, Crystal 1, Small (less than 1 g) adiabatic calorimetry	245.46 ± 1.7
180 K, Crystal 1, Vacuum adiabatic calorimetry	245.15 ± 1.5
180 K, Crystal 2, Vacuum adiabatic calorimetry	264.63 ± 1.6
180.31 K, Crystal 1, Small (less than 1 g) adiabatic calorimetry	245.52 ± 1.7
181.28 K, Crystal 1, Small (less than 1 g) adiabatic calorimetry	246.9 ± 1.7
181.74 K, Crystal 2, Small (less than 1 g) adiabatic calorimetry	266.86 ± 1.9
